# Assay results published in US20090232735A1, “USE OF FRUCTOSE-BASED THERAPIES FOR THE TREATMENT OF CANCER” (CEDARS-SINAI MEDICAL CENTER, priority 2005, published 2009).
# Experiments:
# [1] = Serum fructose and glucose in normal volunteers after two cans of soda; type: in vivo, human
# Description: FIG. 37 depicts fasting serum fructose and glucose levels in patients with pancreatic cancer and in normal volunteers in accordance with an embodiment of the present invention. (a) Fasting serum fructose and glucose levels in 6 patients with pancreatic cancer on the morning of resection. (b) Serum fructose, and glucose levels (Mean±SEM) in 3 normal volunteers after a 10 h fast, followed by ingestion of two cans of soda, containing 76 g of carbohydrate in the form of high fructose corn syrup (55% fructose, 45% glucose).
# The normal circulating concentrations of fructose are unknown. […] Briefly, aliquots (20 μl) of fructose standards (0.1, 0.5, 1, 2, 4, 6, and 8 mM) or unknown serum samples were mixed with 5 μl of a stock solution (125 U/ml) of the enzyme fructose dehydrogenase (Sigma) in 175 μl citric acid (0.05 M) phosphate (0.09 M) buffer (pH 4.5), and 20 μl of 3-(4,5-dimethylthiazol-2-yl)-2,5-diphenyltetrazolium bromide (MTT), and phenazine methosulfate (Promega), incubated for 30 minutes, after which absorbance at 570 nm was recorded in a 96-well spectrophotometer. […] As the first analysis, in accordance with institutional review board guidelines, the inventors obtained 32 serum samples randomly selected from anonymous inpatients at Cedars-Sinai Medical Center. The inventors also measured glucose in these same samples using standard glucose oxidase based methods. No details of medical condition were known for these patients, and as depicted in FIG. 36, in 24 of these 32 patients, serum fructose was greater than 5 mM. This intriguing result prompted the inventors to examine serum fructose levels in two other settings. Firstly, the inventors drew fasting blood samples from 6 patients with pancreatic cancer on the morning of surgical tumor resection. As depicted in FIG. 37a, 4 of these 6 patients had fasting serum fructose levels >5 mM, and two patients had serum fructose concentrations of ˜12 mM. The significance of these findings in pancreatic cancer patients is at this point unclear, but the inventors believe that the fructose-mediated pro-proliferative effects seen in pancreatic cancer cells in vitro are of significance, given the circulating fructose concentrations the inventors measured. In a further experiment, 3 normal volunteers fasted for 10 hours, an indwelling cannula was placed in a forearm vein, baseline fasting blood drawn, after which they drank two cans of regular soda, which contained 76 g of sugars, almost exclusively high fructose corn syrup. This source of carbohydrate was chosen to approximate to equivalent glucose concentrations used in a standard 75 g glucose tolerance test, and to bear relevance that dietary sources of high content refined fructose may pose an independent risk factor for pancreatic cancer growth.
# [2] = test system: PANC-1 pancreatic cancer cells; assay: BRDU uptake in PANC-1 cells; type: cell-based, human; conditions: PANC-1, 5.5 mM fructose, 72 h
# Description: FIG. 16 depicts BRDU uptake following treatment with glucose or fructose in accordance with an embodiment of the present invention. PANC-1 cells were pre-incubated in 2 mM glucose prior to treatment with 5.5 mM glucose or fructose for 72 h. BRDU (0.01 mg/ml) was added to the medium at 48 h, and BRDU-uptake quantified at 72 h.
# As a further measure of PANC-1 proliferative rates, the inventors compared bromodeoxyuridine (BRDU) uptake following PANC-1 cell treatment as before with 2 mM, and 5.5 mM glucose, or 5.5 mM fructose for 72 h. In the final 12 h, 10 μM BRDU was added to the glucose-, and fructose-treated cells, after which BRDU-positive cells were counted. […] A further question the inventors sought to address was would the fructose-induced pancreatic cancer proliferative rates be maintained if the PANC-1 cells were also exposed to, and able to utilize their customary culture glucose concentrations. Therefore, the inventors cultured PANC-1 cells for 72 h in a range of glucose concentrations (0-15 mM) admixed with a range of fructose concentrations (0-15 mM).
# [3] = test system: MAPK pathway (pMEK, pRsk, pCREB) in MCF-7, and MDA-MB231 breast cancer cells; assay: Western blot of MAPK pathway in breast cancer cells; type: cell-based, human
# Description: FIG. 11 depicts increased breast cancer phosphorylated-MEK, phosphorylated Rsk, and phosphorylated CREB in accordance with an embodiment of the present invention. MCF-7 breast cancer cells were incubated in 2 mM glucose, 5 mM glucose or 5 mM fructose for 24 hours, after which Western blot analysis on total protein lysates was employed to examine components of the MAP kinase pathway. […] Total MEK, Rsk, and CREB levels, and β-actin served as loading controls.
# Although several signal transduction pathways are likely involved in the fructose-mediated enhanced breast cancer growth and while not wishing to be bound by any particular theory, the inventors believe that the MAP-kinase pathway is involved. The inventors have used Western blot analysis to examine the MAPK pathway in breast cancer cells incubated in 2 mM glucose, 5.5 mM glucose, and 5.5 mM fructose for 48 hours. […] Activation of MEK, and subsequently ERK results in phosphorylation of p90^Rsk, which leads to transcriptional activation of CREB and AP1, which bind to cAMP or AP1 response elements respectively, activating gene transcription and promoting cellular growth.
# [4] = test system: pancreatic cancer development; conditions: cited from earlier work
smiles,measurement,setting,value
O=C(CO)[C@@H](O)[C@H](O)[C@H](O)CO [fructose],mean fasting fructose level,"[1]; 3 normal volunteers, 10 h fast, before soda",2.66 mM
same,mean serum fructose peak,[1]; 30 minutes after two sodas,17 mM
same,serum fructose levels,[1]; for the 2 hour duration of blood sampling after two sodas,greater than 5 mM
same,mean serum fructose levels,"[1]; within 15 minutes after two sodas (76 g sugars, high fructose corn syrup)",16.5 mM
same,BRDU-uptake higher than with 5.5 mM glucose,[2],~75%
same,phospho-MEK expression,"[3]; 5.5 mM fructose vs 5.5 and 2 mM glucose, MCF-7 and MDA-MB231",increased expression of phospho-MEK (pMEK)
same,phospho-Rsk and phospho-CREB,"[3]; 5.5 mM fructose, 24 h, vs 5.5 and 2 mM glucose","increased phospho-Rsk (pRsk), and phospho-CREB (pCREB)"
same,relative risk of pancreatic cancer,"[4]; high fructose intake, women with increased BMI (>25) or sedentary lifestyle",3.17
same,increased risk of pancreatic cancer development,[4]; women reporting a high fructose-intake,57%
